From publication PMC5733478, “A Non-imaging High Throughput Approach to Chemical Library Screening at the Unmodified Adenosine-A3 Receptor in Living Cells” (Frontiers in Pharmacology, 2017)
Structures can show the parent of a compound that is named as a salt. Where two headings read alike, the source gives them in different places.

Target: T1, human A3AR (Homo sapiens, UniProt P0DMS8)
T1 construct: expressed in transfected cells
T1 sequence (P0DMS8 1-318): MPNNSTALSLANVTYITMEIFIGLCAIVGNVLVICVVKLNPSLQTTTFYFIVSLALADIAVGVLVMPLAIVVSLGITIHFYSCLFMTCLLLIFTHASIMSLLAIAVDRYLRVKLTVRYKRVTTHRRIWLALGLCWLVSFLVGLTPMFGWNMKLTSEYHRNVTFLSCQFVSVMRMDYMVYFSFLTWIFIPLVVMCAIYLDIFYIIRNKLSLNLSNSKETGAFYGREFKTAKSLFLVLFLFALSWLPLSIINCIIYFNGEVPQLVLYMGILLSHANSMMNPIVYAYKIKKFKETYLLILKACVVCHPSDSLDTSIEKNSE
Assay: LOPAC library primary screen: single concentration (10 μM) inhibition of 25 nM CA200645 binding, PHERAstar FS

[1] = % of control wells (1% DMSO and 25 nM CA200645), compounds at 10 µM, whole live cells expressing the A3AR, mean ± SD, three experiments in duplicate
[2] = compounds tested at 10 µM, % of control wells (1% DMSO and 25 nM CA200645), whole live cells expressing the A3AR, mean ± SD, three experiments in duplicate

Compound	% 25 nM CA200645 binding	further results
CC1(C(=O)O)C2CCC(O2)C1(C)C(=O)O (stereo not shown) [Cantharidic Acid]	97.5 ± 13.0%	
CC(=O)OCC1=C(C(=O)[O-])N2C(=O)[C@@H](NC(=O)CCC[C@@H](N)C(=O)[O-])[C@H]2SC1.[Zn+2] [Cephalosporin C zinc salt]	86.9 ± 28.2%	
Nc1ncn([C@@H]2O[C@H](CO)[C@@H](O)[C@H]2O)c(=O)n1 [5-azacytidine]	92.0 ± 10.7%	
CC(C(O)c1ccc(O)cc1)N1CCC(Cc2ccccc2)CC1.CC(C(O)c1ccc(O)cc1)N1CCC(Cc2ccccc2)CC1.O=C(O)C(O)C(O)C(=O)O (stereo not shown) [Ifenprodil tartrate]	95.4 ± 10.6%	
CC(C)(C)OC(=O)NC1[C@H]2CNC[C@@H]12 (stereo partly shown) [CP-101537]	102.3 ± 6.7%	
CS(=O)(=O)O.Cc1c(O)cccc1C(=O)N[C@@H](CSc1ccccc1)[C@H](O)CN1C[C@H]2CCCC[C@H]2C[C@H]1C(=O)NC(C)(C)C.O [Nelfinavir mesylate hydrate]	77.3 ± 17.3%	
CC(N)Cc1c[nH]c2ccc(O)cc12.O=C(O)/C=C\C(=O)O (stereo not drawn) [alpha-Methyl-5-hydroxytryptamine maleate]	115.5 ± 12.2%	
CCc1cc(Cl)c(O)c(C(=O)NC[C@@H]2CCCN2CC)c1OC.Cl [S-(-)-Eticlopride hydrochloride]	96.8 ± 1.1%	
O=C(O)c1cc([N+](=O)[O-])ccc1NCCCc1ccccc1	120.8 ± 13.5%	
CC(C)NC(C)Cc1ccc(I)cc1 (stereo not shown) [Iofetamine hydrochloride]	100.8 ± 7.1%	
CCS(=O)(=O)Nc1cccc(C(=C2CCCCC2)c2cnc[nH]2)c1 [A-315456]	92.6 ± 5.2%	
O=C1NC(c2cccc([N+](=O)[O-])c2)=CCN1c1ccccc1O [Icilin]		% 25 nM CA200645 binding [1]: 88.5 ± 5.8%
CN(C)c1cc2c(Nc3ccc4c(cnn4Cc4ccccc4)c3)ncnc2cn1 [GW2974]	57.3 ± 11.9%	
CCOC(=O)c1cnc2c(cnn2CC)c1NN=C(C)C [etazolate hydrochloride, reference compound]		hit in LOPAC primary screen (inhibited the binding of CA200645 by >40%) (10 μM compound, 25 nM CA200645, A3AR CHO cells): identified; % 25 nM CA200645 binding [1]: 46.2 ± 5.3%
NCCCCNCCCN [Spermidine trihydrochloride]	102.2 ± 19.0%	
C[N+]1(C)[C@@H]2CC[C@H]1C[C@@H](OC(=O)C(CO)c1ccccc1)C2 (stereo partly shown) [Atropine methyl bromide]		% 25 nM CA200645 binding [2]: 102.2 ± 7.3%
NCCCNCCSP(=O)(O)O [Amifostine]	94.6 ± 2.0%	
O=c1c2ccccc2[nH]c(=S)n1CCN1CCC(=C(c2ccc(F)cc2)c2ccc(F)cc2)CC1 [Diacylglycerol Kinase Inhibitor II]	51.5 ± 9.4%	
CO/N=C(\C(=O)N[C@@H]1C(=O)N2C(C(=O)O)=C(COC(C)=O)CS[C@H]12)c1csc(N)n1 [Cefotaxime sodium]	94.2 ± 6.2%	
N=C(N)N/N=C/c1c(Cl)cccc1Cl [Guanabenz acetate]	98.2 ± 11.7%	
O=NN(CCCl)C(=O)NCCCl [Carmustine]	102.2 ± 1.0%	
COc1ccc2[nH]cc(CCN)c2c1.Cl [O-Methylserotonin hydrochloride]	107.2 ± 4.7%	

Compound	% 25 nM CA200645 binding	further results
CC[N+](CC)(CC)CC [Tetraethylammonium chloride]	94.7 ± 8.6%	
COc1cc([C@@H]2c3cc4c(cc3[C@H](O)[C@H]3COC(=O)[C@H]23)OCO4)cc(OC)c1OC [Podophyllotoxin]	97.7 ± 17.3%	
NC[C@H](O)c1ccc(O)c(O)c1.O=C(O)C(O)C(O)C(=O)O (racemic) [(±)-Norepinephrine (+)bitartrate]	87.1 ± 8.1%	
Cc1ccc(S(=O)(=O)O)cc1.NC[C@H]1O[C@@H](n2cnc3c(N)ncnc32)[C@H](O)[C@@H]1O	85.5 ± 26.7%	
Cc1[nH]c(=O)c(C#N)cc1-c1ccncc1 [Milrinone]	97.0 ± 4.9%	
N[C@H](C(=O)O)[C@H](Cc1ccccc1)C(=O)O [L-Beta-threo-benzyl-aspartate]	95.9 ± 9.2%	
CC1(C)CCC(NC(=O)[C@@H](N)CCC(=O)O)CC1 [CR 2249]		% 25 nM CA200645 binding [2]: 109.1 ± 19.6%
COC(=O)C1=CO[C@@H](O)[C@@H]2C(CO)=CC[C@H]12 [Genipin]	96.3 ± 9.0%	
CNc1ncnc2c1ncn2[C@H]1C[C@H](OP(=O)(O)O)[C@@H](COP(=O)(O)O)O1 [MRS 2179]	108.4 ± 2.3%	
O=C1NCN(c2ccccc2)C12CCN(CCCC(c1ccc(F)cc1)c1ccc(F)cc1)CC2 [Fluspirilene]	94.5 ± 10.0%	
O=C1CCC(c2ccc(-n3ccnc3)cc2)=NN1 [Imazodan]	97.4 ± 12.7%	
O=C(O)c1cc2cc(F)ccc2[nH]1 [5-Fluoroindole-2-carboxylic acid]	92.5 ± 8.9%	
CCc1cccc2c3c([nH]c12)C(CC)(CC(=O)O)OCC3 (stereo not shown) [Etodolac]	97.1 ± 13.7%	
O=C(O)CN(CCN(CC(=O)O)CC(=O)O)CCN(CC(=O)O)CC(=O)O [Diethylenetriaminepentaacetic acid]	99.2 ± 10.9%	
COc1ccccc1OCCNCC(O)COc1cccc2[nH]c3ccccc3c12 (stereo not shown) [Carvedilol]	100.8 ± 14.2%	
c1ccc2c(c1)CC(N1CCN(c3cccc4c3OCCO4)CC1)C2 [S15535]	97.0 ± 1.3%	
CN1CCN(c2nc3cc(C(F)(F)F)ccc3n3cccc23)CC1.O=C(O)/C=C\C(=O)O [CGS-12066A maleate]	97.3 ± 10.3%	
Br.Br.N=C(N)SCCN	91.5 ± 12.4%	
Cc1cc([C@@H]2CCCN2C)on1.Cl [ABT-418 hydrochloride]	101.9 ± 4.7%	
C1CCc2nnnn2CC1 [Pentylenetetrazole]	95.4 ± 8.7%	
CCCCCCCCCCC(C)(C)C(=O)Nc1c(OC)cc(OC)cc1OC [CI-976]	89.4 ± 17.7%	
CN1[C@@H]2CC[C@H]1C[C@@H](OC(=O)c1cc(Cl)cc(Cl)c1)C2 [3-Tropanyl-3,5-dichlorobenzoate]		% 25 nM CA200645 binding (% of control wells (1% DMSO and 25 nM CA200645), compounds at 10 µM, whole live cells expressing A3AR, mean ± SD, three experiments in duplicate): 96.9 ± 4.1%

Compound	% 25 nM CA200645 binding	further results
C[N+]1(C)[C@@H]2C[C@@H](OC(=O)[C@H](CO)c3ccccc3)C[C@H]1[C@@H]1O[C@@H]12 [(-)-Scopolamine methyl bromide]	88.5 ± 14.0%	
CN(C)CCCN1c2ccccc2CCc2ccc(Cl)cc21 [Clomipramine hydrochloride]	99.4 ± 3.8%	
Br.Cc1o[nH]c(=O)c1CC(N)C(=O)O (racemic) [(±)-AMPA hydrobromide]	96.2 ± 10.6%	
C[C@](N)(Cc1ccc(O)c(O)c1)C(=O)O [L-alpha-Methyl DOPA]	92.6 ± 21.6%	
Cl.O=c1cc(N2CCOCC2)oc2c(-c3ccccc3)cccc12 [LY-294,002 hydrochloride]	94.6 ± 11.0%	
COc1ccc2c(c1)c(CC(=O)O)c(C)n2Cc1ccc(Cl)cc1	97.1 ± 10.6%	
NC[C@H](O)c1ccc(O)c(O)c1.O=C(O)C(O)C(O)C(=O)O [L(-)-Norepinephrine bitartrate]	97.7 ± 6.2%	
Nc1ccncc1 [4-Aminopyridine]	93.6 ± 7.2%	
O=C(O)/C=C/C(=O)O.O=C(O)/C=C/C(=O)O.O=C(O)/C=C/C(=O)O.O=C1CCCN1CC#CCN1CCCC1.O=C1CCCN1CC#CCN1CCCC1 [Oxotremorine sesquifumarate salt]	101.9 ± 13.3%	
O=C(/C=C/c1ccc(O)c(O)c1)OCCc1ccccc1 [Caffeic acid phenethyl ester]	79.3 ± 10.7%	
CCN1C(=O)C=CC1=O [N-Ethylmaleimide]	99.8 ± 13.3%	
COc1ccc(C(CN(C)C)C2(O)CCCCC2)cc1 (stereo not shown) [Venlafaxine hydrochloride]	97.3 ± 8.5%	
CN1C[C@H](C(=O)N[C@]2(C)O[C@@]3(O)[C@@H]4CCCN4C(=O)[C@H](Cc4ccccc4)N3C2=O)C[C@@H]2c3cccc4[nH]cc(c34)C[C@H]21 [Dihydroergotamine methanesulfonate]	99.2 ± 11.1%	
CN1CCc2cccc(Cl)c2CC1 [SKF 86466]	103.0 ± 12.5%	
COc1ccc2c(c[n+](C)c3c4cc5c(cc4ccc23)OCO5)c1OC [Chelerythrine chloride]	73.9 ± 3.7%	
N[C@@H](CCCC(=O)O)C(=O)O [L-2-aminoadipic acid]	101.5 ± 9.7%	
CC(C)(C=O)Cc1cc(C(C)(C)C)c(O)c(C(C)(C)C)c1 [CGP-13501]	97.4 ± 7.1%	
Cc1ccc([N+](=O)[O-])cc1S(=O)(=O)N(C)C [BRL 50481]	82.8 ± 17.4%	
N#CC(C#N)=C(N)/C(C#N)=C/c1cc(O)c(O)c(O)c1 [Tyrphostin 51]		% 25 nM CA200645 binding [2]: 94.9 ± 2.9%
O=C(c1ccc(OCCN2CCCCC2)cc1)c1c(-c2ccc(O)cc2)sc2cc(O)ccc12 [Raloxifene hydrochloride]	90.8 ± 14.0%	
CC(N)C(O)c1ccc(O)c(O)c1 (single isomer, unassigned; (-)) [(-)-alpha-Methylnorepinephrine]	100.4 ± 6.1%	
Br.CCCN(CCC)[C@@H]1CCc2cccc(O)c2C1 [R-(+)-8-Hydroxy-DPAT hydrobromide]	83.0 ± 17.5%	
